Measurements from the supplement of paper PMC5579334.

What was measured:
[1] = test system: HSC1; experiment: relative IC50 (inflection point of fitted dose-response curve, CellTiter-Glo viability, 72 h; top asymptote may be below 50% inhibition); higher = less potent
Procedure, shortened: (§1)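 For this screen, 384-well plates were preprinted with each compound at five concentrations in 10-fold steps and seeded with MPNST cell lines or primary human Schwann cells at 750–1000 cells per well. Incubation lasted 72 h at 37 °C, 5% CO2, and CellTiter-Glo ATP luminescence, scaled between vehicle and positive-control wells and averaged over duplicates where available, served as viability. Logistic fits with four parameters were applied. Relative IC50 (censored at the top concentration) and drug sensitivity score derive from these fits, and percent inhibition is at the top concentration.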

[2] = test system: HS-Sch-2; experiment: as above
Procedure, shortened: as §1

[3] = test system: S462; experiment: as above
Procedure, shortened: as §1

[4] = test system: ST8814; experiment: as above
Procedure, shortened: as §1

[5] = test system: HSC2; experiment: as above
Procedure, shortened: as §1

[6] = test system: YST-1; experiment: as above
Procedure, shortened: as §1

[7] = test system: HS-PSS; experiment: as above
Procedure, shortened: as §1

[8] = test system: S1507-2; experiment: as above
Procedure, shortened: as §1

[9] = test system: HSC1; experiment: relative IC50 (inflection point of fitted dose-response curve, CellTox-Green cytotoxicity, 72 h; top asymptote may be below 50%); higher = less potent
Procedure, shortened: (§2)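 MPNST cell lines and primary human Schwann cells were grown for 72 h at 37 °C in 384-well plates containing five 10-fold compound dilutions. CellTox-Green, added before seeding at a final 1:1000 dilution, gave fluorescence from DNA released by disrupted cells, and signals were scaled to vehicle and positive-control wells. Curves were fitted with a four-parameter logistic model. Drug sensitivity score and relative IC50 come from these fits, with IC50 censored at the top concentration.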

[10] = test system: ST8814; experiment: as above
Procedure, shortened: as §2

[11] = test system: HSC2; experiment: as above
Procedure, shortened: as §2

[12] = test system: STS26T; experiment: as above
Procedure, shortened: as §2

[13] = test system: HS-PSS; experiment: as above
Procedure, shortened: as §2

[14] = test system: STS26T; experiment: relative IC50 (inflection point of fitted dose-response curve, CellTiter-Glo viability, 72 h; top asymptote may be below 50% inhibition); higher = less potent
Procedure, shortened: as §1

Structure (SMILES) | relative IC50 [1] | relative IC50 [2] | relative IC50 [3] | relative IC50 [4] | relative IC50 [5] | relative IC50 [6] | relative IC50 [7] | relative IC50 [8] | relative IC50 [9] | relative IC50 [10] | relative IC50 [11] | relative IC50 [12] | relative IC50 [13] | relative IC50 [14]
CC(C)(C)NC(=O)[C@H]1CC[C@H]2[C@@H]3CC[C@H]4NC(=O)C=C[C@]4(C)[C@H]3CC[C@]12C [Finasteride] | > 10000 nM | > 10000 nM | > 10000 nM | > 10000 nM | > 10000 nM | > 10000 nM | > 10000 nM | > 10000 nM | > 10000 nM | > 10000 nM | > 10000 nM | > 10000 nM | > 10000 nM | 
COc1cccc2c1C(=O)c1c(O)c3c(c(O)c1C2=O)C[C@@](O)(C(=O)CO)C[C@@H]3O[C@H]1C[C@H](N)[C@H](O)[C@H](C)O1 [Doxorubicin] | 83.2 nM | 133 nM | 71.2 nM | 130 nM | 109 nM | 54.9 nM | 199 nM | 72.5 nM |  | > 1000 nM | 346 nM |  | 367 nM | 81.2 nM
O=S(=O)(c1cccc2cnccc12)N1CCCNCC1 [Fasudil] | 13000 nM | 16700 nM | 16100 nM |  | 16600 nM | 16500 nM | 19800 nM | 19700 nM | > 50000 nM | > 50000 nM | > 50000 nM | 20200 nM |  | 17600 nM
CCn1c(-c2nonc2N)nc2cnc(Oc3cccc(NC(=O)c4ccc(OCCN5CCOCC5)cc4)c3)cc21 | 64 nM | 988 nM | 1490 nM | 1930 nM | 51.4 nM | 618 nM | 1610 nM | 1480 nM | 2520 nM | > 10000 nM |  | 322 nM | > 10000 nM | 775 nM
C[C@]12O[C@H](C[C@]1(O)CO)n1c3ccccc3c3c4c(c5c6ccccc6n2c5c31)CNC4=O [Lestaurtinib] | 29.3 nM | 112 nM | 93.8 nM | 130 nM | 24.9 nM | 59.8 nM | 87.2 nM | 101 nM |  | 290 nM |  |  | > 1000 nM | 155 nM
Cn1cc(C[C@@H](N)C(=O)O)c2ccccc21 [1-methyl-D-tryptophan aq] | > 5000 nM |  | > 5000 nM | > 5000 nM | > 5000 nM |  |  | > 5000 nM | > 5000 nM | > 5000 nM | > 5000 nM |  |  | > 5000 nM
N#CCNC(=O)c1ccc(-c2ccnc(Nc3ccc(N4CCOCC4)cc3)n2)cc1 [Momelotinib] | 1410 nM | 1640 nM | 2740 nM | 1970 nM | 1330 nM | 1300 nM | 2500 nM | 3760 nM | 3370 nM | > 10000 nM | 3220 nM |  | > 10000 nM | 3110 nM
CNC(=O)c1ccc(N2C(=S)N(c3cnc(C#N)c(C(F)(F)F)c3)C(=O)C23CCC3)cc1F [ARN 509] | > 10000 nM |  | > 10000 nM | > 10000 nM | > 10000 nM |  |  | > 10000 nM | > 10000 nM | > 10000 nM | > 10000 nM |  | > 10000 nM | > 10000 nM
COc1cc2nccc(Oc3ccc(NC(=O)Nc4cc(C)on4)c(Cl)c3)c2cc1OC [Tivozanib] | 1710 nM | 3870 nM | 828 nM | > 10000 nM | 1790 nM | 2260 nM | 3730 nM | 18.9 nM |  | 1900 nM | > 10000 nM | 1890 nM | > 10000 nM | 1870 nM
CC(=O)N(O)CCCCCNC(=O)CCC(=O)N(O)CCCCCNC(=O)CCC(=O)N(O)CCCCCN [Deferoxamine aq] | 1470 nM |  | 1630 nM | 1300 nM | 771 nM |  |  | 931 nM | > 10000 nM | 3040 nM | > 10000 nM | > 10000 nM |  | 1420 nM
CN(N=O)C(=O)N[C@@H]1[C@@H](O)[C@H](O)[C@@H](CO)O[C@@H]1O [Streptozocin] | > 10000 nM |  | > 10000 nM |  | > 10000 nM |  |  | > 10000 nM | > 10000 nM | > 10000 nM | > 10000 nM | > 10000 nM | > 10000 nM | > 10000 nM
CN(C)CCN1C(=O)c2cccc3cc(N)cc(c23)C1=O [Amonafide] | 1350 nM | 1700 nM | 1650 nM | 1690 nM | 1860 nM | 1020 nM | 2410 nM | 1360 nM | > 10000 nM | 3150 nM |  |  | 2150 nM | 2240 nM
CN1CCc2c(c3ccccc3n2Cc2ccc(C(=O)NO)cc2)C1 [Tubastatin A] | 3180 nM | 3370 nM | 3270 nM | 3470 nM |  | 1600 nM | 3010 nM | 2430 nM | > 10000 nM | > 10000 nM | > 10000 nM | 2760 nM | > 10000 nM | 2840 nM
Nc1ncn([C@@H]2O[C@H](CO)[C@@H](O)[C@H]2O)c(=O)n1 [Azacitidine] | 2340 nM |  | 2580 nM |  | 3320 nM |  |  | > 10000 nM | > 10000 nM | > 10000 nM | > 10000 nM | > 10000 nM | > 10000 nM | 3840 nM
CN(c1ccccc1CNc1nc(Nc2ccc3c(c2)CC(=O)N3)ncc1C(F)(F)F)S(C)(=O)=O | 209 nM | 2440 nM | 1010 nM | 1370 nM | 326 nM | 1240 nM | 2360 nM | 1250 nM |  |  |  | 849 nM |  | 1420 nM
